Test results published in PMC9940851, “Seleno Containing Compounds as Potent and Selective Antifungal Agents” (ACS Infectious Diseases, 2022).
Converted amounts (≈) assume the structure as drawn.

What was measured:
M. globosa ATCC MYA 4612 = tested on: T1, M. globosa ATCC MYA 4612; experiment: microbe, parasite or virus in culture; conditions: Malassezia globosa
T1 construct: ATCC MYA 4612
Protocol: (§1) Inoculum preparations for antifungal assays were performed following the CLSI guidelines for antifungal susceptibility testing of yeasts.[31] Antifungal activity was evaluated on unicellular yeasts Candida albicans ATCC 10231, Candida glabrata ATCC 90030 (DSMZ 11226), Malassezia pachydermatis CDC 16334 (DSMZ 6172), Malassezia globosa ATCC MYA 4612, and Malassezia furfur ATCC 14521. All the fungal strains were stored at −80 °C in cryovials. Then Candida spp. and Malassezia pachydermatis were reactivated in RPMI 1640 broth for 24–48 h at 35 °C. The so obtained fresh cultures were streaked onto Sabouraud dextrose agar and incubated for 24–48 h at 35 °C. Malassezia globosa and furfur were reactivated in modified RPMI 1640 broth[32] for 24–48 h at 35 °C (M. furfur) and 33 °C (M. globosa), and then the cultures were streaked onto Leeming and Notman agar (MLNA) and incubated for 48–72 h at 35 °C for M. furfur and at 33 °C for M. globosa. The fungal inoculum for the testing was prepared by suspending in phosphate buffer (PB) 10 mM pH 7 4–5 colonies of about 1 mm diameter. The fungal suspension was then adjusted to a final optical density of 0.5 McFarland standard (1–5 × 10^6 cells/mL). The compound solutions were tested in a range of concentrations from 0.01 μg/mL to 256 μg/mL, and 50 μL were then added in 96 wells microtiter plates with 50 μL of fungal inoculum and incubated for 24–48 h at 35 °C. Growth and sterility controls were performed. […] Compounds 3a, 3c, 5b, 7a–d, 9c, 11e, 11i, and 14a,b were selected as representatives of the chemical moieties synthesized prior to their screen on yeasts of biomedical relevance such as M. pachydermatis DSMZ 6172, C. albicans ATCC 10231, and C. glabrata ATCC 90030 (DSMZ 11226) strains. The clinical used drugs Ketoconazole, SeS2, and Amphotericin B were included as references (Table 1).

ATCC M. furfur 14521 = tested on: T2, ATCC M. furfur 14521; experiment: microbe, parasite or virus in culture; conditions: Malassezia furfur
T2 construct: ATCC 14521
Protocol: as §1

MpaCA = target: T3, MpaCA (Malassezia pachydermatis, UniProt A0A0M8MPA4); experiment: stopped-flow CO2 hydrase assay; type: biochemical
T3 construct: gene Malapachy_3798
T3 sequence (A0A0M8MPA4 1-242): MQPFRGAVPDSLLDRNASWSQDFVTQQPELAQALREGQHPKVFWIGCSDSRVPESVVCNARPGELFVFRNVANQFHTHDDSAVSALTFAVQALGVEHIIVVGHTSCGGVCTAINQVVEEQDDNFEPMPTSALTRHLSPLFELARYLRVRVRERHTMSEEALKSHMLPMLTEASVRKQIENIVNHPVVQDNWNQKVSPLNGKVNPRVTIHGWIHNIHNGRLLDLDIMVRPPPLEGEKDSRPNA

[1] = tested on: T4, M. pachydermatis DSMZ 6172; experiment: microbe, parasite or virus in culture; design: broth microdilution MIC, M. pachydermatis and Candida, 35 °C; conditions: Malassezia pachydermatis, DSMZ6172
T4 construct: DSMZ 6172 (CDC 16334)
Protocol: as §1

MgCA = target: T5, MgCA (Malassezia globosa, UniProt A8Q1N3); experiment: stopped-flow CO2 hydrase assay; type: biochemical
T5 construct: gene MGL_1814
T5 sequence (A8Q1N3 1-241): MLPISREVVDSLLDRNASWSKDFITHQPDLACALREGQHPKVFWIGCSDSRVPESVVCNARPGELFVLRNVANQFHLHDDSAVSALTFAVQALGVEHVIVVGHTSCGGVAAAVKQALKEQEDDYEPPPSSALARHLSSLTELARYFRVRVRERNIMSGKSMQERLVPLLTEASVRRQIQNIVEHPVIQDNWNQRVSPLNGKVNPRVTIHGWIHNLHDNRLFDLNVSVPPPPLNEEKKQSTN
How it was run: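 Stopped-flow recording over 10–100 s followed CO2 hydration (1.7–17 mM CO2) in 20 mM Hepes pH 7.4 plus 20 mM Na2SO4, using 0.2 mM phenol red at 557 nm, after recombinant carbonic anhydrase (5–12 nM) had been preincubated with inhibitor for 15 min at room temperature. Initial rates, corrected for uncatalysed rates, came from at least six traces, and at least three determinations were averaged. Ki was calculated by nonlinear least-squares fitting with the Cheng-Prusoff equation.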

| Structure (SMILES) | MIC (M. globosa ATCC MYA 4612) [µg/mL] | MIC (ATCC M. furfur 14521) [µg/mL] | Ki (MpaCA) [µM] | MIC [1] [µg/mL] | Ki (MgCA) [µM] |
| --- | --- | --- | --- | --- | --- |
| NS(=O)(=O)c1ccc(NC(=[Se])NC(=O)c2ccc(/N=N/c3ccccc3)cc2)cc1 [7j, (E)-4-(Phenyldiazenyl)-N-((4-sulfamoylphenyl)carbamoselenoyl)benzamide] | 24 ± 13.9 (≈ 49.3 µM) | 21.3 ± 9.24 (≈ 43.8 µM) | 37 | 2 (≈ 4.11 µM) | 2.86 |
| NS(=O)(=O)c1cccc(NC(=[Se])Nc2ccccc2)c1 [4a] | 256 (≈ 723 µM) | 107 ± 37 (≈ 301 µM) | 0.283 | 4 (≈ 11.3 µM) | 0.783 |
| NS(=O)(=O)c1cccc(NC(=[Se])NC(=O)c2ccccc2)c1 [8a] | 128 (≈ 335 µM) | 21.3 ± 9.24 (≈ 55.7 µM) | 33.7 | 2 (≈ 5.23 µM) | 4.14 |
| O=C(NC(=[Se])Nc1ccc(S(=O)(=O)Nc2nccs2)cc1)c1cc(Br)cc(OC(F)(F)F)c1 [10b, 3-Bromo-N-((4-(N-(thiazol-2-yl)sulfamoyl)phenyl)carbamoselenoyl)-5-(trifluoromethoxy)benzamide] | 341 ± 148 (≈ 543 µM) | 427 ± 148 (≈ 679 µM) | 85.3 | 16 (≈ 25.5 µM) | 9.26 |
| NS(=O)(=O)c1cccc(NC(=[Se])Nc2ccc(F)cc2)c1 [4b] | – | – | 0.342 | – | 0.7 |
| NS(=O)(=O)c1ccc(O)c(NC(=[Se])NC(=O)c2ccc(I)cc2)c1 [11d, N-((2-Hydroxy-5-sulfamoylphenyl)carbamoselenoyl)-4-iodobenzamide] | 128 (≈ 244 µM) | 10.7 ± 4.62 (≈ 20.4 µM) | 7.5 | 13.3 ± 4.6 (≈ 25.4 µM) | 2.93 |
| NS(=O)(=O)c1ccc(NC(=[Se])NC(=O)c2ccc(Br)cc2F)cc1 [7h, 4-Bromo-2-fluoro-N-((4-sulfamoylphenyl)carbamoselenoyl)benzamide] | 64 (≈ 134 µM) | 3.3 ± 1.15 (≈ 6.89 µM) | 68.5 | 0.5 (≈ 1.04 µM) | 0.764 |
| NS(=O)(=O)c1ccc(O)c(NC(=[Se])NC(=O)c2ccc(CCl)cc2)c1 [11h, 4-(Chloromethyl)-N-((2-hydroxy-5-sulfamoylphenyl)carbamoselenoyl)benzamide] | > 256 | 74.7 ± 48.9 (≈ 167 µM) | 76.6 | 4 (≈ 8.95 µM) | 6.49 |
| NS(=O)(=O)c1cccc(NC(=[Se])NC(=O)c2ccc(I)cc2)c1 [8e, 4-Iodo-N-((3-sulfamoylphenyl)carbamoselenoyl)benzamide] | > 256 | 6.7 ± 2.31 (≈ 13.2 µM) | 77.6 | 8 (≈ 15.7 µM) | 8.74 |
| COc1ccccc1NC(=[Se])NCCc1ccc(S(N)(=O)=O)cc1 [5f] | 256 (≈ 621 µM) | 1.3 ± 0.58 (≈ 3.15 µM) | 0.525 | 0.5 (≈ 1.21 µM) | 0.411 |
| NS(=O)(=O)c1ccc(CCNC(=[Se])Nc2ccccc2)cc1 [5a] | – | – | 0.793 | – | 0.655 |
| NS(=O)(=O)c1ccc(NC(=[Se])Nc2cccc(C(F)(F)F)c2)cc1 [3d] | > 256 | 213 ± 73.9 (≈ 505 µM) | 0.617 | 6 ± 3.46 (≈ 14.2 µM) | 0.803 |
| NS(=O)(=O)c1cccc(NC(=[Se])NC(=O)c2ccc(F)cc2)c1 [8d, 4-Fluoro-N-((3-sulfamoylphenyl)carbamoselenoyl)benzamide] | 256 (≈ 640 µM) | 256 (≈ 640 µM) | 79.5 | 2 (≈ 5 µM) | 7.3 |
| NS(=O)(=O)c1ccc(NC(=[Se])Nc2ccccc2Cl)cc1 [3e] | 256 (≈ 659 µM) | 5.3 ± 2.31 (≈ 13.6 µM) | 0.693 | 1 ± 0.87 (≈ 2.57 µM) | 0.655 |
| NS(=O)(=O)c1ccc(NC(=[Se])NC(=O)c2ccc(F)cc2)cc1 [7k, 4-Fluoro-N-((4-sulfamoylphenyl)carbamoselenoyl)benzamide] | 256 (≈ 640 µM) | 5.3 ± 2.31 (≈ 13.2 µM) | 80.8 | 0.5 (≈ 1.25 µM) | 8.29 |
| NS(=O)(=O)c1ccc(CCNC(=[Se])Nc2cccc(C(F)(F)F)c2)cc1 [5c] | – | – | 0.992 | – | 0.701 |
| CCCCCCCc1ccc(C(=O)NC(=[Se])NCCc2ccc(S(N)(=O)=O)cc2)cc1 [9b, 4-Heptyl-N-((4-sulfamoylphenethyl)carbamoselenoyl)benzamide] | 256 (≈ 503 µM) | 1.7 ± 0.58 (≈ 3.34 µM) | > 10 | 1.7 ± 0.58 (≈ 3.34 µM) | 6.39 |
| NS(=O)(=O)c1ccc(CCNC(=[Se])NC(=O)c2ccc(I)cc2)cc1 [9e, 4-Iodo-N-((4-sulfamoylphenethyl)carbamoselenoyl)benzamide] | 32 (≈ 59.7 µM) | 3.3 ± 1.15 (≈ 6.15 µM) | 83.3 | 1 (≈ 1.86 µM) | 1.57 |
| CCCCCCCc1ccc(C(=O)NC(=[Se])Nc2cc(S(N)(=O)=O)ccc2O)cc1 [11b] | 256 (≈ 516 µM) | 5.3 ± 2.31 (≈ 10.7 µM) | 78 | 8 (≈ 16.1 µM) | 4.93 |
| NS(=O)(=O)c1ccc(O)c(NC(=[Se])NC(=O)c2ccccc2)c1 [11a] | 128 (≈ 321 µM) | 2.7 ± 1.15 (≈ 6.78 µM) | 13.4 | 1 (≈ 2.51 µM) | 4.1 |
| NS(=O)(=O)c1ccc(O)c(NC(=[Se])NC(=O)c2ccc(Cl)cc2)c1 [11f, 4-Chloro-N-((2-hydroxy-5-sulfamoylphenyl)carbamoselenoyl)benzamide] | 256 (≈ 592 µM) | 4 (≈ 9.24 µM) | 54.2 | 0.5 (≈ 1.16 µM) | 5.13 |
| NS(=O)(=O)c1ccc(CCNC(=[Se])Nc2ccc(I)cc2)cc1 [5g] | 85.3 ± 37 (≈ 168 µM) | 1.7 ± 0.58 (≈ 3.34 µM) | 0.531 | 1 (≈ 1.97 µM) | 0.689 |
| NS(=O)(=O)c1cccc(NC(=[Se])NC(=O)c2ccc(Br)cc2F)c1 [8g, 4-Bromo-2-fluoro-N-((3-sulfamoylphenyl)carbamoselenoyl)benzamide] | 128 (≈ 267 µM) | 8 (≈ 16.7 µM) | 65.7 | 13.3 ± 4.6 (≈ 27.8 µM) | 3.48 |
| O=C(NC(=[Se])Nc1ccc(S(=O)(=O)Nc2nccs2)cc1)c1ccc(Cl)cc1 [10g, 4-Chloro-N-((4-(N-(thiazol-2-yl)sulfamoyl)phenyl)carbamoselenoyl)benzamide] | > 256 | 64 (≈ 128 µM) | 66.7 | 1.3 ± 0.58 (≈ 2.6 µM) | 36.1 |
| NS(=O)(=O)c1ccc(CCNC(=[Se])NC(=O)c2ccccc2)cc1 [9a] | 32 (≈ 78 µM) | 4 (≈ 9.75 µM) | 73.9 | 1 (≈ 2.44 µM) | 0.565 |
| NS(=O)(=O)c1ccc(NC(=[Se])NC(=O)c2ccc(I)cc2)cc1 [7g, 4-Iodo-N-((4-sulfamoylphenyl)carbamoselenoyl)benzamide] | 256 (≈ 504 µM) | 6 ± 3.46 (≈ 11.8 µM) | 76.1 | 0.5 (≈ 0.984 µM) | 3.11 |
| NS(=O)(=O)c1ccc(CCNC(=[Se])Nc2ccc3ccccc3c2)cc1 [5h] | 64 (≈ 148 µM) | 1.7 ± 0.58 (≈ 3.93 µM) | 0.26 | 0.5 (≈ 1.16 µM) | 0.561 |
| NS(=O)(=O)c1ccc(CCNC(=[Se])Nc2ccc(Br)cc2)cc1 [5d] | – | – | 0.369 | – | 0.683 |
| NS(=O)(=O)c1ccc(NC(=[Se])Nc2ccc(F)cc2)cc1 [3b] | – | – | 0.965 | – | 0.648 |
| NS(=O)(=O)c1ccc(NC(=[Se])NC(=O)c2ccc(CCl)cc2)cc1 [7i, 4-(Chloromethyl)-N-((4-sulfamoylphenyl)carbamoselenoyl)benzamide] | – | 16 (≈ 37.1 µM) | 67.7 | 6.7 ± 2.31 (≈ 15.6 µM) | 0.877 |
